From patent publication US20250302797A1, “COMBINATION THERAPIES FOR TREATING INFLAMMATION” (Flagship Pioneering Innovations VI, LLC, priority 2022, published 2025)

Tests used:
[1] = test system: Differentiated THP-1 macrophages stimulated with IFN-gamma and LPS; assay: THP1 cytokine secretion assay; assay type: cell-based, Human; conditions: for greatest IL6 inhibition to: IL6 secretion; for greatest TNFa inhibition to: TNFa secretion
Method: Human THP-1 cells were plated and differentiated into macrophages through treatment with phorbol 12-myristate 13-acetate and beta-mercaptoethanol for 72 hours. Differentiated THP-1 macrophages were then stimulated with IFN-gamma (20 ng/mL) and LPS (50 ng/mL) to induce an inflammatory response and co-treated with gamma-mangostin and/or luteolin at 0, 0.2, 0.5, 2, 5, 10 uM. Various secreted cytokines were measured from the media using the Ella Automated Immunoassay System (ProteinSimple).

[2] = test system: cytokine gene expression in ears of mice stimulated with oxazolone; assay: Oxazolone-induced dermatitis mouse model: cytokine gene expression in ear; assay type: in vivo, BALB/c mice; conditions: right ear; topical; Dexamethasone 5 mg/mL or Luteolin (1.6-9.6 mg/mL)+Gamma-mangostin (1.2-7.2 mg/mL)
Method: (§1) Male BALB/c mice weighing 22±2 g are used and randomly divided into groups of 5 each. Sham treatment group receive no oxazolone sensitization and challenge, but PBS, plus treated with vehicle (Acetone:ethanol 1:1). All other groups' animals were sensitized by applying oxazolone (100 μL, 1.5% in acetone) onto their preshaved abdominal surface on Day 0, and challenged by oxazolone (1%, 20 μL/ear) seven (7) days later. 20 μL of either Vehicle, Dexamethasone (5 mg/mL; anti-inflammatory positive control), or a combination of Luteolin (1.6-9.6 mg/mL)+Gamma-mangostin (1.2-7.2 mg/mL) were applied topically to the anterior and posterior surfaces of the right ear 30 minutes before and 15 minutes after oxazolone challenge. Left ear was unstimulated and treated as a control.
(§2) The right and left ear thickness of each mouse were measured at 24 hours after oxazolone challenge as an index of inflammation. The right ear was harvested and snap frozen for cytokine gene expression analysis.

LPS-injected mice = assay: LPS-induced systemic inflammation mouse model: blood cytokine levels; assay type: in vivo, C57Bl/6 mice; conditions: intraperitoneal 1 hour prior to LPS (1 mg/kg); Dexamethasone 5 mg/kg or Luteolin+Gamma-mangostin 4+4.5 mg/kg; serum or plasma
Method: C57Bl/6 male mice, 6-8 weeks old, weighing 22±2 g were randomly divided into groups of 5-6 each. Sham animals were injected intra-peritoneally with PBS only. All other groups were intraperitoneally injected with either Vehicle control, Dexamethasone (5 mg/kg), or a combination of Luteolin+Gamma-mangostin (4+4.5 mg/kg) at 1 hour prior to injection with LPS (1 mg/kg), an agent known to trigger systemic inflammation. After LPS injection, blood was collected at different time points: 30 min, 2 h, 4 h and 24 h and the processed serum or plasma were used for further cytokine analysis through LUMINEX or Ella Automated Immunoassay System (Protein Simple).

[3] = test system: oxazolone-induced ear swelling in mice; assay: Oxazolone-induced dermatitis mouse model: ear thickness; assay type: in vivo, BALB/c mice; conditions: topical 20 μL, 5 mg/mL, 30 minutes before and 15 minutes after oxazolone challenge; measured at 24 hours
Method: as §1, §2

[4] = Gamma-mangostin alone at 10 uM (0-10 uM tested)
[5] = Luteolin alone at 0.5 uM (0-10 uM tested)

SMILES: CC(C)=CCc1c(O)cc2oc3cc(O)c(O)c(CC=C(C)C)c3c(=O)c2c1O [Gamma-mangostin, Gamma-Mangostin]
- greatest IL6 inhibition to [1, 4]: 53%
- greatest TNFa inhibition to [1, 4]: 45%

SMILES: O=c1cc(-c2ccc(O)c(O)c2)oc2cc(O)cc(O)c12 [Luteolin]
- greatest IL6 inhibition to [1, 5]: 53.7%
- greatest TNFa inhibition to [1, 5]: 45.6%

SMILES: C[C@@H]1C[C@H]2[C@@H]3CCC4=CC(=O)C=C[C@]4(C)[C@@]3(F)[C@@H](O)C[C@]2(C)[C@@]1(O)C(=O)CO [Dexamethasone]
- Ifng gene expression (% of Vehicle control) [2]: 445%
- Il1b gene expression (% of Vehicle control) [2]: 5%
- Il4 gene expression (% of Vehicle control) [2]: 24%
- Il6 gene expression (% of Vehicle control) [2]: 33%
- Il11 gene expression (% of Vehicle control) [2]: 55%
- Il13 gene expression (% of Vehicle control) [2]: 20%
- Tnfa gene expression (% of Vehicle control) [2]: 14%
- CXCL1 level, % of the Vehicle (LPS-injected mice): 57%
- MIP1-beta level, % of the Vehicle (LPS-injected mice): 29%
- TNFa level, % of the Vehicle (LPS-injected mice): 12%
- reduction in ear thickness compared to the Vehicle-treated ears [3]: 29%
